Data reported in patent US20060141067A1, “Anti-allergic herbal formulation” (priority 2004, published 2006).
Marks after values point to notes of the source that are not given here.

Tested on: mast cell
Assay: Mast cell degranulation in rats (histamine released)
Type: in vivo
Settings: 25 mg/kg p.o., mean ± S.E.M.
Method: Mast cell degranulation: Tyrode solution (10 ml) containing 5 units/ml of heparin was injected in the peritoneal cavity of sensitized male rats lightly anaesthetized with ether. After a gentle abdominal massage for about 30 to 45 sec, the mast cell rich peritoneal fluid was collected over ice and centrifuged at 2000 rpm for 5 min. The cells were washed thrice with chilled Tyrode and resuspended in about 1 ml of Tyrode solution. The peritoneal fluid was obtained from 10 rats and the final volume of the fluid was pooled and used for the studies (Nair A M et al, 1997).

In the case of `CN(C)CCC(c1ccccc1)c1ccccn1.O=C(O)/C=C\C(=O)O` (stereo not shown) [Avil], the Histamine released is reported as 0.345 ± 0.04^b μg/ml.
